This is an account of results in patent US7968596B2, “Preparation and diabetic use of Gibberellins” (Australian Biomedical Company Pty, Ltd., priority 2001, dated 2011).

One data set relates to Human skin cell culture. Put plainly: Effect of Gibberellin A3 on cell growth compared to EGF in vitro (human skin cell culture, keratinocytes media). The data set is classed as cell-based. The following applies: for Results: cell growth / cell division rate: five days. Here is the method: Human skin cell culture experiments were conducted by using keratinocytes media. Each well was seeded with 1,500 cells. Incubation was carried out at 37° C. for a period of five days.

A further data set deals with rats. Particulars: cited from earlier work.
A further data set relates to mice. Particulars: cited from earlier work.
For a further data set, the system named is skin and eyes. Particulars: in vivo; cited from earlier work.
Another data set deals with Diabetic Rats. Put plainly: Effect on streptozotocin-induced diabetic rats (blood glucose, body weight). The data set is classed as in vivo, Male Wistar rats. The following applies: for Blood glucose level after day 20th, 2 hours: 2 hours after administration; for Blood glucose level after day 20th, 5 hours: 5 hours after administration. Here is the method:
Male Wistar rats (290 g˜330 g) were weighed and lightly anaesthetized (4% halothane, 2:1 O2/N2O) so that blood glucose levels could be measured via a tail vein sample, using a Precision Q.I.D. glucometer. Diabetes was then induced by a single tail vein injection of streptozotocin (STZ, 60 mg/kg), which was dissolved immediately prior to use in citrate buffer (50 mM citric acid and 50 mM trisodium citrate; pH 4.5). An equivalent volume of citrate buffer was injected into age-matched control rats.
Rats were housed in groups of two during the experiment. Animal house temperature was maintained at 20° C. (±2° C.) with a 12 hour light/dark cycle, and rats were allowed free access to food and water.
Forty-eight hours after the administration of STZ (60 mg/kg), a blood glucose sample was taken and animals with blood glucose levels≧16 mM were considered to be diabetic. Rats were then randomly divided into groups. The slow-acting, Lente Monotard insulin was used and Gibberellin sodium salt was made up as required in distilled water immediately prior to use. Blood glucose readings were obtained two hours or 5 hours after the administration of drug(s) every three days.

Setting [1] is: Keratinocyte medium containing no EGF, but containing Gibberellin A3 (5 μg/ml).
Where [2] appears, read: Perfect keratinocyte medium (containing EGF) plus Gibberellin A3 (5 μg/ml).
Where [3] appears, read: Group 1: Insulin 4 unit/rat sub-cutaneous daily.
Where [4] appears, read: Group 2: Insulin 2 unit/rat sub-cutaneous daily.

Regarding `C=C1C[C@]23C[C@@]1(O)CC[C@H]2[C@@]12C=C[C@H](O)[C@@](C)(C(=O)O1)[C@H]2[C@@H]3C(=O)O` [Gibberellin A3], in the data set on Human skin cell culture (Experiment 3.2, EGF plus Gibberellin A3 5 μg/ml), the “effect of presence of both EGF and Gibberellin A3 on the rate of cell growth” value was “no additive effect”. For the same compound, in the data set with Human skin cell culture (Experiment 3.4, no EGF, Gibberellin A3 5 μg/ml), the “stimulation of cell growth by Gibberellin A3 alone, compared to EGF” value is “as effectively as EGF”. In addition, the “Results: cell growth” value in the data set on Human skin cell culture (setting [1]) and with Human skin cell culture (setting [2]) was “Very good growth (cell” throughout. For the same compound, the cell division rate result in the data set with Human skin cell culture (setting [1]) and with Human skin cell culture (setting [2]) was “division rate = 100)” throughout. Also, the “acute oral LD50” value in the data set with rats is recorded as 6.3 g/kg; in the data set with mice it was over 15 g/kg. Also, the “irritation to skin and eyes” value with skin and eyes is “non-irritating”.

With “Insulin: slow-acting, Lente Monotard insulin”, in the data set on Diabetic Rats (setting [3]), the “Body weight change on the 30th day” value is listed as “+8%” and the “Blood glucose level after day 20th, 5 hours” value is reported as 3~5 mM. Moreover, in the data set on Diabetic Rats (Group 1: Insulin 4 unit/rat sub-cutaneous daily, STZ diabetic rats), the “Blood glucose level after day 20th, 2 hours” value was 4~5 mM. In addition, in the data set with Diabetic Rats (setting [4]), the “Body weight change on the 30th day” value is −8%; the “Blood glucose level after day 20th, 2 hours” value is 15~18 mM; the “Blood glucose level after day 20th, 5 hours” value is on record as 14~16 mM.
